Measured values published in article PMC6288363, “A Novel Selective JAK2 Inhibitor Identified Using Pharmacological Interactions” (Frontiers in Pharmacology, 2018).
pKd: −log10 of the molar value.

Experiments:
JAK3 = target: T1, JAK3 (Homo sapiens, UniProt P52333); assay: KINOMEscan bead-based competition Kd; assay type: binding
T1 sequence (P52333 1-1124): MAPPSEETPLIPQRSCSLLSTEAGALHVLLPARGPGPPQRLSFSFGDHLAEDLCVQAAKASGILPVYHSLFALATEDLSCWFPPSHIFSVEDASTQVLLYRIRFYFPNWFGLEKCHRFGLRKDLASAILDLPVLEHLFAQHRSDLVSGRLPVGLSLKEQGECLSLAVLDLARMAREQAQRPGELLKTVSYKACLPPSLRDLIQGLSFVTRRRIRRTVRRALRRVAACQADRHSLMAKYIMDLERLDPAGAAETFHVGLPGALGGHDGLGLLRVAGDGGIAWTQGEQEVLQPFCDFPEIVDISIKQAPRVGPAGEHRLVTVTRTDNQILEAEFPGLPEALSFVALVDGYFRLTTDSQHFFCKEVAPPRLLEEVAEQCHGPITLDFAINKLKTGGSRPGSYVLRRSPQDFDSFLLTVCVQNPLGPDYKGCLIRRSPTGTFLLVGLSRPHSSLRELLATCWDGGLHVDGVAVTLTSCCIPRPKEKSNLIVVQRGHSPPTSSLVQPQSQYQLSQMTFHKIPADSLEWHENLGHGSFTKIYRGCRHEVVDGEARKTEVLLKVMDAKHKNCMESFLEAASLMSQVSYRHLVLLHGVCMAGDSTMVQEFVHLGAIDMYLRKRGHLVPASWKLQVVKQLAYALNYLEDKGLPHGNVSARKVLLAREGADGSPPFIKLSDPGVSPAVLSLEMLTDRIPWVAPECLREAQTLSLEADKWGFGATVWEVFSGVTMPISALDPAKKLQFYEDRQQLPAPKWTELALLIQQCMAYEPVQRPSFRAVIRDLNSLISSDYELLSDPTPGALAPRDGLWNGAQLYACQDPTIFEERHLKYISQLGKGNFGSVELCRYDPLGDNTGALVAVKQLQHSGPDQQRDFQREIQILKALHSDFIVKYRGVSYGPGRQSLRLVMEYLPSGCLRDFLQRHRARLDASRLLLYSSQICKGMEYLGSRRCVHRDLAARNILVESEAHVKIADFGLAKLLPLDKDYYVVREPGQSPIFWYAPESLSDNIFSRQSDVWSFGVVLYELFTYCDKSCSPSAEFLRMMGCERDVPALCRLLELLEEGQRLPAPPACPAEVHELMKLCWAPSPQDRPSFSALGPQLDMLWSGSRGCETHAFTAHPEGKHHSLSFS

JAK2 = target: T2, JAK2 (Homo sapiens, UniProt O60674); assay: KINOMEscan bead-based competition Kd; also Z'LYTE kinase assay, […] inhibition at […]; assay type: binding
T2 construct: JH1 domain
T2 sequence (O60674 840-1132 limits assumed): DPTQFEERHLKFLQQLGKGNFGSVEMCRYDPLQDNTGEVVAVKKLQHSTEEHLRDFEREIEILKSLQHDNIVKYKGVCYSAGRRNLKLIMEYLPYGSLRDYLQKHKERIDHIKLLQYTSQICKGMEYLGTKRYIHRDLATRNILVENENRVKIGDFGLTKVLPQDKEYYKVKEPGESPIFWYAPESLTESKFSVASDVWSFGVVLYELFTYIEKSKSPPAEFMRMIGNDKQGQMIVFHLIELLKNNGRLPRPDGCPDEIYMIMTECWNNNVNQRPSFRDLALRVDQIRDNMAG

CCN(CC)CC[C@H](CNc1ccnc2cc(Cl)ccc12)c1ccc(O)cc1 [NSC13626]
pKd (JAK3): 5.34
pKd (JAK2): 5.18
